According to US20070185013A1, “Use of chk1 inhibitors to control cell proliferation” (ICOS CORPORATION, priority 2003, published 2007):
Entries after “also recorded” stand apart in the source; their conditions may differ.

Columns and labels:
HT29 tumors = test: H3-P mitotic index assay in HT29 tumors; type: in vivo, mice; details: for mitotic index (H3-P): 100 mg/kg gemcitabine i.p.
Experimental: Chem. 271:13197-201. 1996; Goto et al., J Biol Chem. 274:25543-9, 1999). The assay protocol was as follows. Tumors from rodents treated or untreated with Chk1 activator (in the present study, chemotherapy agent) and/or Chk1 inhibitor, were excised and paraffin embedded. The tumors are cut into 6 micron thick slices and mounted on glass slides. […] The slides are then heated to 95° C. in 10 mM sodium citrate for 10 minutes followed by a 20 minute cooling step. The slides are blocked for 30 minutes with Block buffer (20% normal human serum and 2% bovine serum albumin in phosphate buffered saline containing 0.05% Triton X-100 (PBST)). The anti-phospho histone H3 antibody (Upstate Biotech, Cat. #06-570) is diluted 1:200 in the Block buffer and incubated with the slides for one hour. The slides are washed 3 times 5 minutes in PBST. The secondary antibody, donkey anti-rabbit rhodamine (Jackson, cat #711-295-152) was added for 30 minutes. The slides were then washed twice in PBST and […] of […] DAPI (Sigma) in PBS is added and allowed to stain for 30 minutes. The slides were then washed two more times in PBST and mounted with Vectashield (Vector, cat # H-1400). Slides were viewed using fluorescence microscopy. The percentage of cells stained with H3-P antibody relative to total (DAPI stained) cells were quantified using Metamorph software (Universal Imaging Corporation, Version 4.6). […] Tumors from these animals were resected, paraffin embedded and stained with an antibody to H3-P followed by a counter-stained with DAPI. The percentage of mitotic cells (positive to H3-P) was quantified at each time point. […] To determine whether checkpoint abrogation by selective Chk1 inhibitor was dose-dependent, HT29 tumor-bearing mice were pretreated with gemcitabine and 32 hours later dosed with increasing doses of selective Chk1 inhibitor. After 18 hours, tumors were harvested and stained for H3-P as described above. […] The response is saturated at 400 mg/kg.

Chk1 [1] = test: Chk1 serine 317 and 345 phosphorylation, Western blot in HT29 cells; type: cell-based, human; details: 20 μM gemcitabine for two hours, 22 additional hours
Text: To determine whether an agent is a Chk1 activator, the phosphorylation state of Chk1 can be measured using phospho-specific antibodies to specific phosphorylation sites on Chk1. […] Liu, Q., et al., (2000) Genes Dev. 14, 1448-1459; Zhao, H., et al., (2001) Mol. Cell. Biol. 21, 4129-4139; Lopez-Girona, A., et al., (2001) Proc. Natl. Acad. Sci. U.S.A. 98, 11289-11294; Guo, Z., et al., (2000). Genes Dev. 14, 2745-2756; Gatei, M., et al., (2003) J. Biol. Chem. 278, 14806-14811; Ng C P, et al., J Biol Chem. 2004 Mar. 5; 279(10):8808-19; Wang Y, et al., Natl Acad Sci USA. 2003 Dec. 23; 100(26):15387-92; Stojic L, et al., Genes Dev. 2004 Jun. 1; 18(11):1331-44. These serine sites are phosphorylated by upstream checkpoint kinases, Atm and Atr. Liu, Q., et al., S. J. (2000) Genes Dev. 14, 1448-1459; Zhao, H., et al. (2001) Mol. Cell. Biol. 21, 4129-4139).
The phosphorylation of these sites in response to a candidate Chk1 activator can be monitored by Western blot or immunohistochemistry of tumor cells. […] HT29 cells were treated with 20 μM gemcitabine for two hours. The gemcitabine was washed out of the cell growth media and cells were incubated for 22 additional hours. Protein lysates were prepared and separated by an SDS-polyacrylamide gel electrophoresis. […]

Chk1 [2] = test: Chk1 serine 296 phosphorylation, Western blot in HT29 cells; type: cell-based, human; details: HT29 cells, 20 μM gemcitabine for two hours, 22 additional hours
Experimental: Phosphorylation at this site is not inhibited by Wortinannin, which inhibits Atm and Atr. Therefore the phosphorylation of serine 296 is distinct from phosphorylation at serines 317 and 345 described in Example 12. […] Therefore, this approach may be used to monitor Chk1 activity in tumors in response to Chk1 activators. Further, this approach may be used to measure inhibition of Chk1 activation by Chk1 inhibitors.
Thus, HT 29 cells were treated with 20 μM gemcitabine for two hours. The gemcitabine was washed out of the cell growth media and cells were incubated for 22 additional hours. Protein lysates were prepared and separated by an SDS-polyacrylamide gel electrophoresis. Proteins were transferred to polyvinylidene fluoride (PVDF) membranes and probed with antisera (Cell Signalling) specific for phosphorlyated serine 296 (Cell Signalling). […] Further, HT29 cells treated with selective Chk1 inhibitors for 15 minutes show no serine 296 phosphorylation.

SMILES: Nc1ccn([C@@H]2O[C@H](CO)[C@@H](O)C2(F)F)c(=O)n1 [gemcitabine]
- mitotic cells (H3-P positive) (HT29 tumors; 100 mg/kg gemcitabine for 48 hours alone): approximately 4%
- mitotic index (H3-P) (HT29 tumors; 1-6 hr time points): approximately 3
- mitotic index (H3-P) (HT29 tumors; between 12 and 24 hr after administration): approximately 1.5
- time of lowest H3-P staining (HT29 tumors; HT29, treated with gemcitabine): 48 h
- time of optimal S phase arrest post-gemcitabine treatment (HT29 tumors; HT29 tumors, from H3-P and Rb-Pser795 staining): 24 to 48 h
- phosphorylation of Chk1 serines 317 and 345 (Chk1 [1]): results in the phosphorylation of both serines 317 and 345
- phosphorylation of Chk1 serine 296 (Chk1 [2]): stimulated; also recorded: results in the phosphorylation of serine 296
